{"source": "patent US6642256B2", "about": "“Piperidine derivatives as subtype selective N-Methyl-D-Aspartate antagonists” (Warner-Lambert Company LLC, priority 2000, dated 2003)", "system": "Male Wistar albino rats", "assay": "Formalin footpad test (FT)", "format": "in vivo, rat", "settings": "Table 1; PO; statistically significant decrease in late-phase pain behaviour versus vehicle", "description": "a. The Formalin Footpad Test (FT):\nThe FT model was used to test invention compounds for pain alleviating properties. The model produces a biphasic response in a test animal that results from a change in pain intensity over time. The FT model utilizes an injection of dilute formalin into the hindpaw of a rodent, which produces high intensity acute pain behaviors which are measured for the first 10 minutes post formalin injection (early phase responding). High intensity acute pain behaviors include rapid licking or biting of the injected hindpaw. The second phase is a prolonged period of lower intensity pain behaviors (late phase responding) which are measured from 11 to 45 minutes post-formalin injection.\nMale Wistar albino rats (Harlan Sprague-Dawley Labs), weighing approximately 100 g at the time of testing, were used. Animals were group-housed and acclimated to the housing facility for 1 week prior to testing. Animals were maintained on a 12-hour/12-hour light/dark cycle and fed block rodent chow. From 4 to 8 animals were randomly assigned to either a vehicle-only dose group or a vehicle-plus invention compound treatment group on the day of testing.\nThe testing apparatus was a 16″×8″ box divided into two 8″×8″ testing chambers. Each testing chamber comprised a floor and 3 walls made of clear plastic mirrors, and a fourth wall which was clear plastic that allowed observation of animal behavior. The top of each chamber was covered with a metal screen during testing to prevent animals from climbing out of the chamber. Two animals were tested simultaneously in the adjoining boxes, but animals were unable to observe one another.\nAnimals were weighed and placed into holding cages (2 animals per cage) in the testing room prior to dosing. Following approximately 30 minutes of acclimation to the testing room, each pair of animals was administered orally (PO) by gavage a mixture of invention compound plus vehicle or vehicle alone. The treated animals were then placed in individual test chambers and allowed to acclimate to the chambers for at least 20 minutes. Then 50 μL of a 2.5% solution of formalin in vehicle was injected subcutaneously (SC) in the plantar surface of the left hindpaw from 30 to 120 minutes after administration of the invention compound. A session timer was started following the formalin injection, and the amount of time the animal spent licking or biting the injected paw was clocked with a hand-held stopwatch. The cumulative time spent engaging in a pain response was manually recorded at 5-minute intervals for 45 minutes post formalin injection. Early phase responding included Minutes 0 to 10, and late phase responding included Minutes 11 to 45. At the end of the testing period, animals were sacrificed using carbon dioxide. […]"}
{"molecule": "O=c1[nH]c2ccc(C3=NOC(CN4CCC(Cc5ccc(F)cc5)CC4)C3)cc2o1", "note": "(single isomer, unassigned; (-)) [Example 4b, (−)-6-{5-[4-(4-Fluorobenzyl)piperidin-1-ylmethyl]4,5-dihydroisoxazol-3-yl}-3H-benzoxazol-2-one]", "values": [{"measurement": "FT (mg/kg), active dose", "value": ">30", "unit": "mg/kg"}]}
{"molecule": "O=c1[nH]c2ccc(C3=NOC(CN4CCC(Cc5ccccc5)CC4)C3)cc2o1", "note": "(racemic) [Example 1, 6-[5-(4-Benzylpiperidin-1-ylmethyl)-4,5-dihydroisoxazol-3-yl]-3H-benzoxazol-2-one]", "values": [{"measurement": "FT (mg/kg), active dose", "value": ">10", "unit": "mg/kg"}]}
